{"source": "patent US20210189444A1", "about": "“METHOD OF PURIFYING CANNABINOIDS FROM YEAST FERMENTATION BROTH” (Demetrix, Inc., priority 2019, published 2021)", "assay": "solubility of CBGA and CBG in water as a function of pH (solubility curves, FIG. 4)", "data": [{"smiles": "CCCCCc1cc(O)c(C/C=C(\\C)CCC=C(C)C)c(O)c1C(=O)O", "note": "[CBGA, cannabigerolic acid]", "values": [{"measurement": "solubility in aqueous phase", "setting": "pH 11.5 (25% KOH), water:IPM 4:1", "result": "soluble"}, {"measurement": "solubility in water", "setting": "pH <2", "result": "insoluble"}]}]}
